Measurements reported in patent US10689359B2, “Crystals of quinazoline derivative and preparation method therefor” (Xuanzhu Pharma Co., Ltd., priority 2015, dated 2020).
Like-named read-outs stand apart in the source and are kept apart here.

Assays:
[1] = Study on stability of Crystal form I, II and III (influencing factors; character, moisture content, relevant substances by HPLC, XRPD); type: physicochemical; settings: for Increase of moisture content: 10 days vs Day 0
Experimental: The samples were tested for character, relevant substances, moisture content, XRPD pattern, etc. […] The samples were tested for relevant substances, content, character, moisture content, XRPD pattern, etc. During the study, the uncovered experimental samples were kept in cultured dishes in the air. […] During the study, the uncovered experimental samples were kept in cultured dishes in the air. […] With respect to relevant substances, in accordance with High Performance Liquid Chromatography in Appendix V D in Pharmacopoeia of the People's Republic of China (2010), the samples were determined by area normalization method. Instrument: High Performance Liquid Chromatographic Instrument (Agilent 1200/1260 series) Chromatographic column: chromatographic column using octylsilane chemically bonded silica as filler (HC-C8, 4.6×250 mm, 5 μm) Column temperature: 30° C. Detection wavelength: 230 nm Mobile phase: mobile phase consisting of 0.03 mol/L diammonium hydrogen phosphate/0.03 mol/L sodium perchlorate solution-acetonitrile, and reversed-phase gradient elution was employed. Flow rate: 1.0 mL/min Injection volume: 10 μL Method for determining moisture content: the moisture content was determined in accordance with First Method for Determining Moisture Content B (Coulometric Titration) in Appendix VIII M in Pharmacopoeia of the People's Republic of China (2010).

[2] = Evaluation on pharmacokinetics in SD rats, intragastric administration; type: in vivo; settings: 5 mg/kg
Experimental: An amorphous form of a compound of Formula (I), the preparation method of which could be found in the particular Examples as disclosed in the international patent application (Publication No. WO 2012027960 A1).
Test animal: SD rats, male, weighed 190-250 g, 6 rats for each crystal form, purchased from Beijing Vital River Laboratory Animal Technology Co., Ltd.
Administration route: intragastric administration, at an administration dose of 5 mg/kg, and an administration volume of 10 mL/kg.
Blood collection: whole blood (about 100 μL) was collected from tail vein 10 min, 30 min, 1 h, 2 h, 4 h, 6 h, 8 h, and 24 h after administration, and added to K2EDTA-containing anticoagulation tubes. The whole blood sample was centrifuged for 6 min at 4° C., 8000 rpm in a high speed centrifuge, and plasma was separated. Plasma needed to be prepared within 30 min after blood collection, and stored at −80° C. in a refrigerator.
Plasma sample analysis: the plasma samples were analyzed by protein precipitation: to plasma (20 μL), an internal standard Gefitinib (200 μL, 50 ng/mL acetonitrile solution) was added; the resultant mixture was vortexed at 500 rpm for 5 min, and centrifuged at 4000 rpm for 20 min in a high speed centrifuge; to the supernatant (100 μL), water (100 μL) was added; the resultant mixture was mixed homogeneously under vortexing and analyzed by LC-MS/MS for blood concentration.
Calculation for PK parameters: PK parameters were calculated by using Pharsight Phoenix 6.2 software.

[3] = Comparison of stability between crystal forms and amorphous form, 60° C. uncovered, relevant substances by HPLC; type: physicochemical; settings: for Change in total relevant substances (conclusion) / Increase of total relevant substances: 60° C. uncovered; for Change in total relevant substances (conclusion): 5 days and 10 days
Experimental: Instrument: High Performance Liquid Chromatographic Instrument (Agilent 1260 series) Chromatographic column: chromatographic column using octylsilane chemically bonded silica as filler (HC-C8, 4.6×250 mm, 5 μm) Column temperature: 30° C. Detection wavelength: 230 nm Mobile phase: Mobile phase consisting of 0.06 mol/L sodium dihydrogen phosphate/0.06 mol/L sodium perchlorate solution-acetonitrile, and reversed-phase gradient elution was employed. Flow rate: 1.0 mL/min Injection volume: 10 μL

[4] = 10 days, 40° C./RH75% uncovered

For `C=CC(=O)Nc1cc2c(Nc3ccc(F)c(Cl)c3)ncnc2cc1OCC1CC2(CCN(C)CC2)C1` [Crystal form I, N-(4-((3-chloro-4-fluorophenyl)amino)-7-((7-methyl-7-azaspiro[3.5]nonan-2-yl)methoxy)quinazolin-6-yl)acrylamide], the Character ([1]; 0 day) was “light yellow”, the Crystal form ([1]; 0 day) was “crystal-” and the Moisture content ([1]; 0 day) was 5.0%. The Relevant substance ([1]; 0 day) was 0.78%, the Change in impurities ([1]; 60° C.-uncovered, UV light, 10 days) was “increased to some extent” and the Character ([1]; 5 days, 40° C./RH75% covered) was “light yellow”. The Crystal form ([1]; 5 days, 40° C./RH75% covered) was “the same”, the Moisture content ([1]; 5 days, 40° C./RH75% covered) was 5.1% and the Relevant substance ([1]; 5 days, 40° C./RH75% covered) was 0.74%. For the same molecule, the Character ([1]; 5 days, 40° C./RH75% uncovered) was “light yellow”, the Crystal form ([1]; 5 days, 40° C./RH75% uncovered) was “the same” and the Moisture content ([1]; 5 days, 40° C./RH75% uncovered) was 5.4%. The Relevant substance ([1]; 5 days, 40° C./RH75% uncovered) was 0.76%, the Character ([1]; 5 days, 60° C. covered) was “light yellow” and the Crystal form ([1]; 5 days, 60° C. covered) was “the same”. For the same molecule, the Moisture content ([1]; 5 days, 60° C. covered) was 5.0%, the Relevant substance ([1]; 5 days, 60° C. covered) was 0.75% and the Character ([1]; 5 days, 60° C. uncovered) was “light yellow”. For the same molecule, the Crystal form ([1]; 5 days, 60° C. uncovered) was “the same”, the Moisture content ([1]; 5 days, 60° C. uncovered) was 4.9% and the Relevant substance ([1]; 5 days, 60° C. uncovered) was 1.3%. The Character ([1]; 5 days, RH-75%) was “light yellow”, the Crystal form ([1]; 5 days, RH-75%) was “the same” and the Moisture content ([1]; 5 days, RH-75%) was 5.5%. The Relevant substance ([1]; 5 days, RH-75%) was 0.78%, the Character ([1]; 5 days, RH-92.5%) was “light yellow” and the Crystal form ([1]; 5 days, RH-92.5%) was “the same”. The Moisture content ([1]; 5 days, RH-92.5%) was 5.5%, the Relevant substance ([1]; 5 days, RH-92.5%) was 0.78% and the Character ([1]; 5 days, visible light) was “light yellow”. The Crystal form ([1]; 5 days, visible light) was “the same”, the Moisture content ([1]; 5 days, visible light) was 5.1% and the Relevant substance ([1]; 5 days, visible light) was 0.74%. The Character ([1]; 10 days, 40° C./RH75% covered) was “light yellow”, the Crystal form ([1]; 10 days, 40° C./RH75% covered) was “the same” and the Moisture content ([1]; 10 days, 40° C./RH75% covered) was 4.9%. The Relevant substance ([1]; 10 days, 40° C./RH75% covered) was 0.73%, the Character [1, 4] was “light yellow” and the Crystal form [1, 4] was “the same”. For the same molecule, the Moisture content [1, 4] was 5.2%, the Relevant substance [1, 4] was 0.79% and the Character ([1]; 10 days, 60° C. covered) was “light yellow”. For the same molecule, the Crystal form ([1]; 10 days, 60° C. covered) was “the same”, the Moisture content ([1]; 10 days, 60° C. covered) was 4.8% and the Relevant substance ([1]; 10 days, 60° C. covered) was 0.78%. The Character ([1]; 10 days, 60° C. uncovered) was “light yellow”, the Crystal form ([1]; 10 days, 60° C. uncovered) was “the same” and the Moisture content ([1]; 10 days, 60° C. uncovered) was 4.6%. For the same molecule, the Relevant substance ([1]; 10 days, 60° C. uncovered) was 1.4%, the Character ([1]; 10 days, RH-75%) was “light yellow” and the Crystal form ([1]; 10 days, RH-75%) was “the same”. The Moisture content ([1]; 10 days, RH-75%) was 5.7%, the Relevant substance ([1]; 10 days, RH-75%) was 0.70% and the Character ([1]; 10 days, RH-92.5%) was “light yellow”. The Crystal form ([1]; 10 days, RH-92.5%) was “the same”, the Moisture content ([1]; 10 days, RH-92.5%) was 5.8% and the Relevant substance ([1]; 10 days, RH-92.5%) was 0.79%. For the same molecule, the Character ([1]; 10 days, UV light) was “light yellow”, the Crystal form ([1]; 10 days, UV light) was “the same” and the Moisture content ([1]; 10 days, UV light) was 5.2%. The Relevant substance ([1]; 10 days, UV light) was 0.89%, the “Increase of moisture content” value ([1]; high moisture RH-75%) was 0.7% and the “Increase of moisture content” value ([1]; high moisture RH-92.5%) was 0.8%. The “Stability of the samples (conclusion)” value ([1]; influencing factor conditions (high temperature, high moisture, light), 10 days) was “relatively stable”, the “Pharmacokinetic properties (conclusion)” value [2] was “good pharmacokinetic properties” and the AUC0-t ([2]; suspension in water) was 1404 ng·h/mL. The AUCinf ([2]; suspension in water) was 1414 ng·h/mL, the “Cmax (maximum blood concentration)” value ([2]; suspension in water) was 134 ng/mL and the “T1/2 (drug elimination half-life)” value ([2]; suspension in water) was 3.16 h. The “Tmax (time to maximum blood concentration)” value ([2]; suspension in water) was 4 h, the Total relevant substances ([3]; 0 day) was 0.23% and the “Change in total relevant substances (conclusion)” value [3] was “little increase in total relevant substances”. The Total relevant substances ([3]; 60° C. uncovered-5 days) was 0.48% and the Total relevant substances ([3]; 60° C. uncovered-10 days) was 0.47%.

In the case of `C=CC(=O)Nc1cc2c(Nc3ccc(F)c(Cl)c3)ncnc2cc1OCC1CC2(CCN(C)CC2)C1` [Amorphous form, N-(4-((3-chloro-4-fluorophenyl)amino)-7-((7-methyl-7-azaspiro[3.5]nonan-2-yl)methoxy)quinazolin-6-yl)acrylamide], the “Cmax and exposure amount (AUC) compared with Crystal form I, II and III” value [2] is reported as “significantly lower”, the “In vivo half-life compared with Crystal form I, II and III” value [2] is reported as “shorter” and the AUC(0-inf) ([2]; male, SD, rat, plasma, po, suspension in water) is reported as 1150 ng·h/mL. The AUC0-t ([2]; male, SD, rat, plasma, po, suspension in water, read-out: AUC0-t) was 1140 ng·h/mL, the Cmax ([2]; male, SD, rat, plasma, po, suspension in water, read-out: Cmax (maximum blood concentration)) was 105 ng/mL and the half-life ([2]; male, SD, rat, plasma, po, suspension in water, read-out: T1/2 (drug elimination half-life) (converted)) was 3.08 h. The Tmax ([2]; male, SD, rat, plasma, po, suspension in water, read-out: Tmax (time to maximum blood concentration)) was 4 h, the Total relevant substances ([3]; 0 day) was 1.1% and the “Change in total relevant substances (conclusion)” value [3] was “rapid increase in total relevant substances”. The “Increase of total relevant substances” value ([3]; 5 days vs Day 0) was 1.3%, the “Increase of total relevant substances” value ([3]; 10 days vs Day 0) was 2.1% and the Total relevant substances ([3]; 60° C. uncovered-5 days) was 2.4%. For the same molecule, the Total relevant substances ([3]; 60° C. uncovered-10 days) was 3.2%.
